In PubChem BioAssay (NCI):
Several values for one entry are separate records, joined by “and”; a condition that tells them apart may be missing. Equal values may be shown once.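 Dose response: 5 concentrations. Exposure: 48 h. Format: 96-well plates. Endpoint: linear interpolation; highest concentration if not reached. The concentration for 50% growth inhibition is given as GI50. At the TGI there is no net growth.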

What was measured:
Assay in all cases: NCI anticancer screen, dose series, 48 h
[1] = tested on: DU-145 prostate
[2] = tested on: HCT-15 colon
[3] = tested on: LOX IMVI melanoma
[4] = tested on: MCF7 breast
[5] = tested on: MDA-MB-231 breast
[6] = tested on: OVCAR-5 ovarian
[7] = tested on: PC-3 prostate
[8] = tested on: SF-539 CNS
[9] = tested on: T-47D breast
[10] = tested on: UO-31 renal

SMILES	GI50 [1]	TGI [1]	GI50 [2]	TGI [2]	GI50 [3]	TGI [3]	GI50 [4]	TGI [4]	GI50 [5]	TGI [5]	GI50 [6]	TGI [6]	GI50 [7]	TGI [7]	GI50 [8]	TGI [8]	GI50 [9]	TGI [9]	GI50 [10]	TGI [10]
CCN(CC)CCC(CNc1c2ccc([N+](=O)[O-])cc2nc2cc(OC)c(OC)cc12)c1ccccc1 (stereo unspecified)	0.134 µM and 0.0582 µM	1.04 µM and 0.301 µM	0.738 µM and 1.03 µM	2.14 µM and 3.1 µM	0.568 µM and 0.527 µM	1.86 µM	0.0363 µM and 0.0428 µM	0.905 µM and 1.23 µM	0.174 µM and 0.178 µM	0.627 µM and 0.73 µM	0.487 µM and 0.755 µM	1.93 µM and 2.3 µM	0.305 µM and 0.209 µM	1.01 µM and 0.98 µM	0.38 µM and 0.423 µM	1.46 µM and 1.64 µM	0.822 µM and 0.541 µM	2.97 µM and 2.61 µM	1.1 µM and 0.956 µM	2.43 µM and 2.6 µM
O=C(O)c1ccc([N+](=O)[O-])c(P(=O)(O)O)c1	–	> 100 µM	–	> 100 µM	–	> 100 µM	–	> 100 µM	–	> 100 µM	–	> 100 µM	–	> 100 µM	–	> 100 µM	–	> 100 µM	–	> 100 µM
S=C(Nc1ccc(-c2nc3ccccc3s2)cc1)Nc1ccccn1	28.5 µM	> 100 µM	27.4 µM	> 71.6 µM	18.2 µM	39.4 µM	> 100 µM	> 100 µM	16.6 µM	48.3 µM	> 52.8 µM	> 81.4 µM	23.6 µM	> 71.7 µM	37.8 µM	> 100 µM	23.6 µM	> 95.5 µM	19.6 µM	> 68.9 µM
CCN1CCN(CCNc2nccc(-c3c(-c4cccc(O)c4)nc4sccn34)n2)S1(=O)=O	16.1 µM and 8.51 µM	32.5 µM and > 100 µM	11.7 µM and 8.63 µM	32.5 µM and > 100 µM	4.96 µM and 2.53 µM	25.7 µM and 23.5 µM	26 µM and 19.5 µM	32.5 µM and > 100 µM	10.5 µM and 7.3 µM	32.5 µM and > 100 µM	21.7 µM and 65 µM	32.5 µM and > 100 µM	17.6 µM and 20.1 µM	32.5 µM and > 100 µM	28.6 µM and 21.3 µM	32.5 µM and 78.5 µM	22.1 µM and 11 µM	32.5 µM and 53 µM	15.1 µM and 5.75 µM	32.5 µM and 74 µM
Clc1cccc(Cn2cc(Cc3cn(Cc4cccc(Cl)c4)c4ccccc34)c3ccccc32)c1	> 100 µM	> 100 µM	> 100 µM	> 100 µM	33.3 µM	> 100 µM	> 100 µM	> 100 µM	52 µM	> 100 µM	47.1 µM	> 100 µM	> 100 µM	> 100 µM	> 100 µM	> 100 µM	> 100 µM	> 100 µM	10.5 µM	> 100 µM
NC(Cc1cc(Br)c(O)c(Br)c1)C(=O)O (stereo unspecified)	–	> 100 µM	–	> 100 µM	–	> 100 µM	–	> 100 µM	–	> 100 µM	–	> 100 µM	–	> 100 µM	–	> 100 µM	–	> 100 µM	–	–
Cn1nc(-c2ccccc2)c(C(=O)/C=C/c2ccccc2)c(N2CCCCC2)c1=O	–	–	–	> 100 µM	–	> 100 µM	–	–	–	–	–	–	–	–	–	> 100 µM	–	–	–	> 100 µM
CCCCCCCCC(=O)CCCCCCCCC(=O)O	–	–	–	–	–	30.2 µM	–	–	–	–	–	55.3 µM	–	–	–	42.5 µM	–	–	–	84.7 µM
COC(=O)C1=C(C(=O)Nc2cccnc2)C2OC1(C(Cc1ccccc1)Oc1ccccc1)C1OC21 (stereo unspecified)	1.77 µM	3.27 µM	–	–	1.83 µM	3.68 µM	1.92 µM	5.33 µM	2.77 µM	6.52 µM	4.1 µM	16.8 µM	9.62 µM	21.9 µM	7.04 µM	19.8 µM	2.02 µM	4.86 µM	1.24 µM	2.49 µM
CC12Oc3ccc4ccccc4c3C1c1c(ccc3ccccc13)O2 (stereo unspecified)	–	–	–	–	–	> 100 µM	–	–	–	–	–	> 100 µM	–	–	–	> 100 µM	–	–	–	> 100 µM
CCCCC(SC(=S)N(CC)CC)C(=O)Nc1nc(CC(=O)OCC)cs1 (stereo unspecified)	98.3 µM	> 100 µM	48.5 µM	> 100 µM	29.6 µM	> 100 µM	–	–	47.8 µM	> 100 µM	40.3 µM	> 100 µM	0.776 µM	> 100 µM	34.6 µM	> 100 µM	24.7 µM	> 100 µM	47.6 µM	> 100 µM
CCOC(=O)CC(=O)N(c1ccc(OC)cc1)C(C(=O)OC)c1ccccc1 (stereo unspecified)	–	> 100 µM	–	> 100 µM	–	> 100 µM	–	> 100 µM	–	–	–	> 100 µM	–	> 100 µM	–	> 100 µM	–	> 100 µM	–	> 100 µM
COC(=O)C1C2CC3C(OC(=O)C31)C2I (stereo unspecified)	–	–	–	> 100 µM	–	> 100 µM	–	–	–	–	–	> 100 µM	–	–	–	> 100 µM	–	–	–	> 100 µM
CC(=O)c1cc2c3c(c1)c1cc4c(cc1c(=O)n3CC2)OCO4	–	–	–	> 100 µM	–	> 100 µM	–	–	–	–	–	> 100 µM	–	–	–	> 100 µM	–	–	–	38.6 µM
Nc1ccn(C2OC(CO[P+](=O)OC3C(CO[P+](=O)OC4C(CO[P+](=O)OC5C(CO[P+](=O)OC6C(CO[P+](=O)OC7C(CO[P+](=O)OC8C(CO[P+](=O)OC9C(CO[P+](=O)OC%10C(CO[P+](=O)OC%11C(CO)OC(n%12ccc(N)nc%12=O)C%11(F)F)OC(n%11ccc(N)nc%11=O)C%10(F)F)OC(n%10ccc(N)nc%10=O)C9(F)F)OC(n9ccc(N)nc9=O)C8(F)F)OC(n8ccc(N)nc8=O)C7(F)F)OC(n7ccc(N)nc7=O)C6(F)F)OC(n6ccc(N)nc6=O)C5(F)F)OC(n5ccc(N)nc5=O)C4(F)F)OC(n4ccc(N)nc4=O)C3(F)F)C(O)C2(F)F)c(=O)n1 (stereo unspecified)	0.0239 µM	0.13 µM	0.704 µM	–	–	> 100 µM	–	> 100 µM	0.522 µM	> 100 µM	9.59 µM	> 100 µM	80.5 µM	> 100 µM	–	–	–	> 100 µM	–	–
CC1C(=O)CCC1C(Sc1ccccc1)(Sc1ccccc1)Sc1ccccc1 (stereo unspecified)	–	–	–	> 100 µM	–	68.5 µM	–	–	–	–	–	> 100 µM	–	–	–	35.1 µM	–	–	–	5.9 µM
Cc1ccccc1NC(=O)N/C(N)=N/c1nc2ccccc2s1	0.0833 µM	> 100 µM	0.0434 µM	> 100 µM	0.0759 µM	> 100 µM	0.0359 µM	> 100 µM	0.892 µM	> 100 µM	0.488 µM	> 100 µM	0.059 µM	> 100 µM	0.041 µM	0.725 µM	–	–	1.3 µM	> 100 µM
